PubChem BioAssay (NCI)
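Values below derive from 48-hour exposures of cells grown in 96-well plates, with endpoints linearly interpolated between the two concentrations bracketing the appropriate inhibition level. Here, GI50 denotes the concentration required for 50% inhibition of growth. TGI is the concentration that stops growth completely.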

What was measured:
Test in all cases: growth of human tumour cells (NCI), 48 h
[1] = tested on: HCT-116 colon
[2] = tested on: A549 NSCLC
[3] = tested on: UACC-62 melanoma
[4] = tested on: OVCAR-5 ovarian
[5] = tested on: HT29 colon
[6] = tested on: OVCAR-8 ovarian
[7] = tested on: CCRF-CEM leukemia
[8] = tested on: SK-MEL-2 melanoma
[9] = tested on: SW-620 colon
[10] = tested on: DU-145 prostate

Work on `CCN(CC)C(=O)N1CCN(C=S)CC1` yielded a TGI [1] greater than 100 µM, a TGI [2] greater than 100 µM and a TGI [3] greater than 100 µM. It also gave a TGI [4] greater than 100 µM, a TGI [5] greater than 100 µM and a TGI [6] greater than 100 µM. The TGI [7] was greater than 100 µM, the TGI [8] was greater than 100 µM and the TGI [9] was greater than 100 µM.

In the case of `C=C1C2CC(OC(C)=O)C3(C)C(c4ccoc4)OC(=O)[C@@H](O)[C@]13OC1C[C@H](OC(C)=O)C(C)(C)[C@H](CC(=O)OC)[C@]12C` (some centres undefined), the TGI [1] is reported as greater than 100 µM, the TGI [2] is reported as greater than 100 µM and the TGI [3] is reported as greater than 100 µM. The TGI [5] was greater than 100 µM, the TGI [6] was greater than 100 µM and the TGI [7] was greater than 100 µM. For the same molecule, the TGI [8] was greater than 100 µM and the TGI [9] was greater than 100 µM.

With `Cc1ccn2c(CCc3nnc4cc(C)ccn34)nnc2c1` the TGI [1] was greater than 100 µM, the TGI [2] was greater than 100 µM and the TGI [3] was greater than 100 µM. For the same molecule, the TGI [4] was greater than 100 µM, the TGI [5] was greater than 100 µM and the TGI [6] was greater than 100 µM. The TGI [8] was greater than 100 µM, the TGI [9] was greater than 100 µM and the TGI [10] was greater than 100 µM.

With `COc1ccc2c(Cl)cc(NC(=O)Nc3c(C)cccc3C)nc2c1` the GI50 [1] was 5.72 µM, the TGI [1] was greater than 100 µM and the GI50 [2] was 6.1 µM. The TGI [2] was 69.4 µM, the GI50 [3] was 64.3 µM and the TGI [3] was greater than 100 µM. It also gave a GI50 [4] greater than 100 µM, a TGI [4] greater than 100 µM and a GI50 [5] of 33.9 µM. For the same molecule, the TGI [5] was greater than 100 µM, the GI50 [6] was 24.7 µM and the TGI [6] was greater than 100 µM. For the same molecule, the GI50 [8] was 28.6 µM, the TGI [8] was 85 µM and the GI50 [9] was 38.9 µM. For the same molecule, the TGI [9] was greater than 100 µM, the GI50 [10] was 28.4 µM and the TGI [10] was greater than 100 µM.

In the case of `O=[N+]([O-])c1ccccc1C=NC12CC3CC(CC(C3)C1)C2`, the TGI [1] is reported as greater than 100 µM, the TGI [2] is reported as greater than 100 µM and the TGI [3] is reported as greater than 100 µM. It also gave a TGI [4] greater than 100 µM, a TGI [5] greater than 100 µM and a TGI [6] greater than 100 µM. For the same molecule, the TGI [7] was greater than 100 µM, the TGI [8] was greater than 100 µM and the TGI [9] was greater than 100 µM.

Molecule `COC(=O)N/N=C(/CCC(=O)Nc1ccc(C)c(C)c1)CC(=O)C(C)(C)C` has a TGI [2] greater than 100 µM, a TGI [3] greater than 100 µM and a TGI [4] greater than 100 µM. For the same molecule, the TGI [5] was greater than 100 µM, the TGI [6] was greater than 100 µM and the TGI [7] was greater than 100 µM. It also gave a TGI [8] greater than 100 µM and a TGI [9] greater than 100 µM.

With `CN1CCN(c2nc(NCCCNc3ccnc4cc(Cl)ccc34)c3ccccc3n2)CC1` the GI50 [1] was 3.3 µM, the TGI [1] was 12.1 µM and the GI50 [2] was 5.01 µM. For the same molecule, the TGI [2] was 19.2 µM, the GI50 [3] was 1.95 µM and the TGI [3] was 3.86 µM. It also gave a GI50 [4] of 4.17 µM, a TGI [4] of 19.1 µM and a GI50 [5] of 3.33 µM. The TGI [5] was 9.87 µM, the GI50 [6] was 5.92 µM and the TGI [6] was 20.7 µM. It also gave a GI50 [8] of 3.18 µM, a TGI [8] of 9.09 µM and a GI50 [9] of 3.23 µM. It also gave a TGI [9] of 12.8 µM, a GI50 [10] of 6.11 µM and a TGI [10] of 18.4 µM.

`C=C(CC(=O)O)C(=O)O` (tested in a mixture with another compound) showed a GI50 [1] greater than 50 µg/mL, a TGI [1] greater than 50 µg/mL and a GI50 [2] greater than 50 µg/mL. The TGI [2] was greater than 50 µg/mL, the GI50 [3] was greater than 50 µg/mL and the TGI [3] was greater than 50 µg/mL. For the same molecule, the GI50 [4] was greater than 50 µg/mL, the TGI [4] was greater than 50 µg/mL and the GI50 [5] was greater than 50 µg/mL. For the same molecule, the TGI [5] was greater than 50 µg/mL, the GI50 [6] was greater than 50 µg/mL and the TGI [6] was greater than 50 µg/mL. It also gave a GI50 [8] greater than 50 µg/mL, a TGI [8] greater than 50 µg/mL and a GI50 [9] greater than 50 µg/mL. The TGI [9] was greater than 50 µg/mL, the GI50 [10] was greater than 50 µg/mL and the TGI [10] was greater than 50 µg/mL.

`O=C1Nc2ccccc2/C1=C\c1nc(C2CCN(S(=O)(=O)c3ccc(F)cc3)CC2)n2ccccc12` gave a GI50 [1] of 13.3 µM, a TGI [1] greater than 100 µM and a GI50 [2] greater than 100 µM. The TGI [2] was greater than 100 µM, the GI50 [4] was 5.16 µM and the TGI [4] was greater than 100 µM. It also gave a GI50 [5] greater than 100 µM, a TGI [5] greater than 100 µM and a GI50 [6] of 1.39 µM. It also gave a TGI [6] of 6.77 µM, a GI50 [7] greater than 100 µM and a TGI [7] greater than 100 µM. For the same molecule, the GI50 [8] was 2.08 µM, the TGI [8] was 7.35 µM and the GI50 [9] was 85.7 µM. The TGI [9] was greater than 100 µM, the GI50 [10] was 4.35 µM and the TGI [10] was greater than 100 µM.

In the case of `CC1C[C@]2(C[C@@H](C)C(=O)O2)O[C@@H]2CC3(C)[C@@H]4CCC5C(C)(C)OC(=O)C[C@H]6OO[C@]4(CC[C@]3(C)C12)CC56O` (some centres undefined), the TGI [2] is reported as greater than 100 µM, the TGI [3] is reported as greater than 100 µM and the TGI [4] is reported as greater than 100 µM. It also gave a TGI [5] greater than 100 µM, a TGI [6] greater than 100 µM and a TGI [8] greater than 100 µM. The TGI [9] was greater than 100 µM.

`CCOC(=O)[C@H]1Nc2ccc([N+](=O)[O-])cc2C2c3ccccc3CC21` (some centres undefined) showed a TGI [1] of 37.9 µM, a TGI [2] of 91.2 µM and a TGI [3] of 30.6 µM. For the same molecule, the TGI [4] was 70.4 µM, the TGI [5] was 35.4 µM and the TGI [6] was 56.1 µM. It also gave a TGI [7] of 43.8 µM, a TGI [8] of 72.3 µM and a TGI [9] of 41.6 µM.

`CC(=O)[CH-]C(=O)c1ccccc1.CC(=O)[CH-]C(=O)c1ccccc1.Cl.[O-]c1ccccn1.[O-]c1ccccn1.[Ti+4]` was tested, and the GI50 [1] was greater than 100 µM, the TGI [1] was greater than 100 µM and the GI50 [2] was greater than 100 µM. For the same molecule, the TGI [2] was greater than 100 µM, the GI50 [3] was greater than 100 µM and the TGI [3] was greater than 100 µM. The GI50 [4] was greater than 100 µM, the TGI [4] was greater than 100 µM and the GI50 [5] was greater than 100 µM. The TGI [5] was greater than 100 µM, the GI50 [6] was greater than 100 µM and the TGI [6] was greater than 100 µM. It also gave a GI50 [8] greater than 100 µM, a TGI [8] greater than 100 µM and a GI50 [9] greater than 100 µM. For the same molecule, the TGI [9] was greater than 100 µM.

Molecule `CC(/C=C/c1ccccc1)=N\NC(N)=S` has a TGI [1] greater than 100 µM, a TGI [2] greater than 100 µM and a TGI [4] greater than 100 µM. It also gave a TGI [5] greater than 100 µM, a TGI [6] greater than 100 µM and a TGI [7] greater than 100 µM. The TGI [9] was greater than 100 µM and the TGI [10] was greater than 100 µM.

`C[C@]1(Cn2ccnn2)C(C(=O)O)N2C(=O)CC2S1(=O)=O` (some centres undefined) was tested, and the GI50 [1] was greater than 100 µM, the TGI [1] was greater than 100 µM and the GI50 [2] was greater than 100 µM. It also gave a TGI [2] greater than 100 µM, a GI50 [3] greater than 100 µM and a TGI [3] greater than 100 µM. It also gave a GI50 [4] greater than 100 µM, a TGI [4] greater than 100 µM and a GI50 [5] greater than 100 µM. It also gave a TGI [5] greater than 100 µM, a GI50 [8] greater than 100 µM and a TGI [8] greater than 100 µM. It also gave a GI50 [9] greater than 100 µM, a TGI [9] greater than 100 µM and a GI50 [10] greater than 100 µM. It also gave a TGI [10] greater than 100 µM.

In the case of `CC12CO[C@@](C)(CC(S(=O)(=O)c3ccccc3)C1)O2` (some centres undefined), the TGI [1] is reported as greater than 100 µM, the TGI [2] is reported as greater than 100 µM and the TGI [3] is reported as greater than 100 µM. For the same molecule, the TGI [4] was greater than 100 µM, the TGI [5] was greater than 100 µM and the TGI [6] was greater than 100 µM. For the same molecule, the TGI [7] was greater than 100 µM, the TGI [8] was greater than 100 µM and the TGI [9] was greater than 100 µM.

In the case of `O=S1(=O)CCCS(=O)(=O)C(c2ccccc2)=C1c1ccccc1`, the TGI [1] is reported as greater than 100 µM, the TGI [2] is reported as greater than 100 µM and the TGI [3] is reported as greater than 100 µM. It also gave a TGI [4] greater than 100 µM, a TGI [5] greater than 100 µM and a TGI [6] greater than 100 µM. It also gave a TGI [7] greater than 100 µM, a TGI [8] greater than 100 µM and a TGI [9] greater than 100 µM.

Work on `Cc1ccc(-c2cc(=O)c3cc(C)c(C)c(C(=O)O)c3o2)cc1N` yielded a TGI [1] greater than 100 µM, a TGI [2] greater than 100 µM and a TGI [3] greater than 100 µM. The TGI [4] was greater than 100 µM, the TGI [5] was greater than 100 µM and the TGI [6] was greater than 100 µM. The TGI [7] was greater than 100 µM, the TGI [8] was greater than 100 µM and the TGI [9] was greater than 100 µM.

Molecule `CN(C)CC(C(=O)Cc1ccccc1)c1ccccc1` (centres undefined) has a GI50 [1] of 1.72 µM, a TGI [1] of 3.3 µM and a GI50 [2] of 16.7 µM. The TGI [2] was 35.5 µM, the GI50 [3] was 6.16 µM and the TGI [3] was 20.1 µM. It also gave a GI50 [4] of 8.19 µM, a TGI [4] of 22.4 µM and a GI50 [6] of 6.75 µM. For the same molecule, the TGI [6] was 23.1 µM, the GI50 [8] was 2.54 µM and the TGI [8] was 5.57 µM. It also gave a GI50 [9] of 1.79 µM, a TGI [9] of 3.59 µM and a GI50 [10] of 1.73 µM. It also gave a TGI [10] of 4.72 µM.
